The values below come from patent US11192869B2, “CFTR regulators and methods of use thereof” (THE REGENTS OF THE UNIVERSITY OF CALIFORNIA, priority 2015, dated 2021).

Entries after “also recorded” stand apart in the source; their conditions may differ.

In data set [1] the test system is mid-jejunal loops of cystic fibrosis mice. In words: In vivo intestinal fluid absorption, closed mid-jejunal loops of CF mice. Also on record: species or system mouse. Particulars: 30 min. The protocol: In vivo intestinal secretion and absorption. Mice (wildtype or CF) were given access to 5% dextrose water but not solid food for 24 h before experiments. Mice were anesthetized with isoflurane and body temperature was maintained during surgery at 36-38° C. using a heating pad. A small abdominal incision was made to expose the small intestine, and closed mid-jejunal loops (length 2-3 cm) were isolated by sutures. Loops were injected with 100 μL vehicle alone or […] CFTRact-J027 in vehicle. The abdominal incision was closed with sutures, and mice were allowed to recover from anesthesia. Intestinal loops were removed at 90 min and loop length and weight were measured to quantify fluid secretion. Intestinal absorption was measured in CF mice (to prevent secretion) as described above, except that the loops were removed at 0 or 30 min. Absorption was calculated as 1-(loop weight at 0 min−loop weight at 30 min)/loop weight at 0 min.
In vivo intestinal secretion and absorption. […] Intestinal loops were removed at 90 min and loop length and weight were measured to quantify fluid secretion. Intestinal absorption was measured in CF mice (to prevent secretion) as described above, except that the loops were removed at 0 or 30 min. Absorption was calculated as 1-(loop weight at 0 min−loop weight at 30 min)/loop weight at 0 min.

Data set [2] can be described thus: 7-day chronic administration toxicity study. Format: in vivo, mouse. From the text:
Chronic administration and toxicity studies.

The subject of the next data set is tear secretion. In words: Tear secretion (phenol red thread). Format: in vivo, mouse. To be noted: single topical dose, for (at least) four hours.
A further data set concerns cAMP. In words: cAMP GloSensor luminescence assay in FRT cells. Particulars: 5 μM, 10 min. Format: cell-based, rat. The procedure:
cAMP assay. Intracellular cAMP activity was measured using a GloSensor luminescence assay (Promega Corp., Madison, Wisconson, USA). FRT null cells were stably transfected with the pGloSensor cAMP plasmid and plated onto white 96-well microplates and grown to confluence. Cells were washed three times with PBS and incubated with 5 μM CFTRact-J027 for 10 min in the absence and presence of 100 nM forskolin. cAMP was assayed according to the manufacturer's instructions.
cAMP and cytotoxicity assays. Intracellular cAMP activity was measured using a GloSensor luminescence assay (Promega Corp., Madison, Wis., USA). FRT cells stably transfected with the pGloSensor cAMP plasmid (Promega Corp.) were cultured in white 96-well microplates (Corning Costar) overnight. Cells were then washed three times with PBS and incubated with 5 μM test compound for 10 min in the absence and presence of 100 nM forskolin.

The subject of data set [3] is loperamide-induced mouse model of constipation. The data set can be described thus: Loperamide-induced mouse model of constipation.
In another data set the target is T1, human wild-type CFTR (Homo sapiens, UniProt P13569).
T1 construct: expressed in transfected cells
T1 sequence (P13569 whole entry): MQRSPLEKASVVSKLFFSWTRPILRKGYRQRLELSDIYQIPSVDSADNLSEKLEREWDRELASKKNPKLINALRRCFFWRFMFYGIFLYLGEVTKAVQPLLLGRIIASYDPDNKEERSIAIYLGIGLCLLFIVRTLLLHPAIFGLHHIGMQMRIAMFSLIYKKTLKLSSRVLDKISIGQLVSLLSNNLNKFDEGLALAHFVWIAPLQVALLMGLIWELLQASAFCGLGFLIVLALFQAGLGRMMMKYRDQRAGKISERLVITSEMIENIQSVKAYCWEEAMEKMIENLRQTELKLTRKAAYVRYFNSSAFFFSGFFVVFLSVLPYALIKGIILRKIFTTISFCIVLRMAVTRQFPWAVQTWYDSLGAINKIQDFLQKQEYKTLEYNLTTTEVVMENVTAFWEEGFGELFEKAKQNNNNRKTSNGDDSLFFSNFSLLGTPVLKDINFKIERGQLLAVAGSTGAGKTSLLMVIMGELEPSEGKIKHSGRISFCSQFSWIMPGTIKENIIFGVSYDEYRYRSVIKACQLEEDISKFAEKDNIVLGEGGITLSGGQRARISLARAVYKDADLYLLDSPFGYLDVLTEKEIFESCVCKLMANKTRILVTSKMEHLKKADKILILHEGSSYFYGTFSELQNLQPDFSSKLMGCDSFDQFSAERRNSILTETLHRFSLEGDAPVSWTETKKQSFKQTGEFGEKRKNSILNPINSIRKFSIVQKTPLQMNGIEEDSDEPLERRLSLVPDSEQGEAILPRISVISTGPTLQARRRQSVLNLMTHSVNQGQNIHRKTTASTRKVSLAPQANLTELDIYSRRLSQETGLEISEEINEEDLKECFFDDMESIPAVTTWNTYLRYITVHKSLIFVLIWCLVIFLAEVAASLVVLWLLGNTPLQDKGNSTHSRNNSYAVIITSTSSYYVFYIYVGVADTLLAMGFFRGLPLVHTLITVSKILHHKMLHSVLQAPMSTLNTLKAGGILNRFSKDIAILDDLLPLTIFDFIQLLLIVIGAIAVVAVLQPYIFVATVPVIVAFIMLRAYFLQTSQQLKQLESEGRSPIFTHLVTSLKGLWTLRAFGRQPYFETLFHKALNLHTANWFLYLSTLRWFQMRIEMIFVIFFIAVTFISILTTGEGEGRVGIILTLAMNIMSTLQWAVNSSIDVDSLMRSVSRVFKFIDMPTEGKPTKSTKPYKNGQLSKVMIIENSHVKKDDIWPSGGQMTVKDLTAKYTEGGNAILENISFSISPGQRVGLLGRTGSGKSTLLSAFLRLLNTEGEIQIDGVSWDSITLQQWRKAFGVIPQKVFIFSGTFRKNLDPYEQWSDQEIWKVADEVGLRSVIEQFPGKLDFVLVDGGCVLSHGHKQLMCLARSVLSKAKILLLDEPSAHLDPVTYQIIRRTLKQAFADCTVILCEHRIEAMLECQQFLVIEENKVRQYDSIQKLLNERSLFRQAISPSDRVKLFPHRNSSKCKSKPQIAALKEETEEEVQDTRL
The data set can be described thus: Short-circuit current in FRT cells expressing wild-type human CFTR. To be noted: short-circuit current, wild-type CFTR. Format: cell-based. The protocol: Short-circuit current measurement. Short-circuit current was measured in FRT cells stably expressing wild-type human CFTR cultured on porous filters as described. The basolateral solution contained 130 mM NaCl, 2.7 mM KCl, 1.5 mM KH2PO4, 1 mM CaCl2, 0.5 mM MgCl2, 10 mM glucose, and 10 mM Na-HEPES (pH 7.3, 37° C.). In the apical solution 65 mM NaCl was replaced by Na gluconate, and CaCl2 was increased to 2 mM, and the basolateral membrane was permeabilized with 250 μg/ml amphotericin B. Short-circuit current was measured in freshly harvested adult mouse colon at 37° C. using symmetrical Krebs-bicarbonate buffer.
Short-circuit current. Fischer rat thyroid (FRT) cells stably expressing wild-type human CFTR were cultured on Snapwell inserts (Corning Costar, Corning N.Y., USA) for short-circuit current (Isc) measurements. After 6-9 days in culture, when the transepithelial resistance was >1000 Ω/cm^2, the inserts were mounted in an Ussing chamber system (World Precision Instruments, Sarasota, Fla., USA). The basolateral solution contained 130 mM NaCl, 2.7 mM KCl, 1.5 mM KH2PO4, 1 mM CaCl2, 0.5 mM MgCl2, 10 mM glucose, and 10 mM Na-HEPES (pH 7.3). In the apical bathing solution, 65 mM NaCl was replaced by Na gluconate, and CaCl2 was increased to 2 mM. Both solutions were bubbled with air and maintained at 37° C. The basolateral membrane was permeabilized with 250 μg/ml amphotericin B (26, 27). Hemichambers were connected to a DVC-1000 voltage clamp via Ag/AgCl electrodes and 3 M KCl agar bridges for Isc recording.

Regarding `Nc1ccc([N+](=O)[O-])cc1-c1nc2ccccc2n(Cc2ccccc2)c1=O` [CFTRact-J027, 3-(2-amino-5-nitrophenyl)-1-benzylquinoxalin-2(1H)-one], the intestinal fluid absorption entry in data set [1] is given as “did not affect”. Besides, in data set [2] (7-day study, 10 mg/kg oral, 10 mg/kg), the “in vivo toxicity after chronic administration” value is “did not show significant; also recorded: without apparent toxicity”. For the same compound, in data set [2] (7-day treated mice), the “major serum chemistry and blood parameters” value was “did not affect”. In addition, in the data set with tear secretion, the “increase of tear fluid secretion” value was “approximately two-fold”. In the data set on cAMP, the “cellular cAMP elevation, compound alone” value is “without causing elevation of cytoplasmic cAMP; also recorded: does not elevate cellular cAMP”. Besides, the “cAMP when added together with forskolin” value in the data set on cAMP (forskolin 100 nM) is given as “does not further increase cAMP”. Also, the “stool weight, pellet number and water content” value in data set [3] (intraperitoneal 10 mg/kg, loperamide-treated mice, 3 h) is “normalizes stool output and water content”. Moreover, in data set [3] (intraperitoneal, non-loperamide-treated mice), the “stool output or water content in control mice” value is reported as “did not affect”. Besides, the “effect in cystic fibrosis mice lacking functional CFTR” value in data set [3] (loperamide model, CF mice) is recorded as “without effect”. For the same compound, in data set [3] (oral 10 mg/kg for 7 days, loperamide 1 h after final dose), the “efficacy after chronic administration” value was “remained effective”. Also, the “stool output and water content” value in data set [3] (oral administration (10 mg/kg, 1 h prior to loperamide), 10 mg/kg) was “normalized stool output and water content; also recorded: effective in normalizing stool output and water content”. Also, the “CFTR activation (in words)” value on human wild-type CFTR was “fully activated CFTR chloride conductance”.
